Reference: ChEMBL document CHEMBL1139459, “Effects of pH on the cytotoxicity of sodium trioxodinitrate (Angeli's salt)” (J Med Chem, 2004)

Legend:
[1] = pK2 was determined; type: ADME; conditions: read-out: pK2
[2] = pK1 was determined; type: ADME; conditions: read-out: pK1

pKa [1]: 9.35
pKa [2]: 3
SMILES: [O-]/[N+](O)=N\O
